Measurements: patent publication EP4644391A1, “NOVEL PHENYLQUINOLONE COMPOUND HAVING ANTIBACTERIAL AND ANTICANCER FUNCTIONS, AND PREPARATION THEREOF” (Alphamol Science Ltd (Shanghai), priority 2022, dated 2024)
In brackets after ≈: the same amount, converted by molar mass. Like-named read-outs stand apart in the source and are kept apart here.

Key:
Type in all cases: cell-based
A. baumannii ATCC 17978 = assay: In vitro antibacterial activity assay (MIC, broth dilution); settings: Acinetobacter baumannii, ATCC17978; Table 2; 37°C, 16 hours; read-out: G- bacteria MIC A. baumannii ATCC 17978
From the text: (§1) The method used to indicate the activity of the compounds in this example is to record the minimum inhibitory concentration (MIC) of the compounds against bacteria. The specific experimental method is as follows: • 1. The bacterial liquid cultured from a single colony was taken, and diluted into autoclaved CAMHB broth in a ratio of 1:1000, and mixed well. • 2. The prepared drug solution was filtered through a sterile 0.22µm syringe filter and placed in a sterile EP tube for later use. • 3. A 96-well plate was taken, and 20µL of drug solution (400µg/mL) was added to each well in the first column of the 96-well plate. Then, 180µL of diluted bacterial liquid was added and mixed well (Perform 3 replicate rows for each drug). The same process was performed for the hydrochloride drug. • 4. 100 µL of diluted bacterial liquid was added to each well in the remaining 11 columns of the 96-well plate. Drugs are the same as above. • 5. Serial dilution: 100µL of liquid was taken from the first column to the second column, mixed well, then 100µL of liquid was taken from the second column to the third column, mixed well, and so on, sequentially diluting down to the last column (column 12). After mixing column 12 well, 100µL of liquid thereof was discarded. The drug concentration in each well was decreased by two-fold serially (the concentration in the first well is 40µg/mL). • 6. Blank CAMHB broth without added bacteria liquid was added to 3 blank wells in the 96-well plate, as negative control. • 7. The diluted bacterial liquid was added to 3 blank wells in the 96-well plate, as positive control. • 8. Incubated at 37°C for 16 hours. • 9. Results reading: the minimum inhibitory concentration is the minimum drug concentration at which no bacterial growth is visible to the naked eye and without turbidity.

E. coli ATCC 25922 = assay: as above; settings: Escherichia coli, ATCC25922
From the text: as §1

E. feacium ATCC 700221 = assay: as above; settings: read-out: G+ bacteria MIC E. feacium ATCC 700221
From the text: as §1

P.aeruginosa ATCC 27853 = assay: as above; settings: Pseudomonas aeruginosa, ATCC27853; Table 2; 37°C, 16 hours; read-out: G- bacteria MIC P.aeruginosa ATCC 27853
From the text: as §1

S. aureus ATCC 43300 = assay: as above; settings: Staphylococcus aureus
From the text: as §1

Hela = assay: In vitro anticancer activity test (MTT cell proliferation assay); settings: Homo sapiens, average proliferation inhibition rate at the dosage of 40 µM
Protocol: The anticancer activity of the compounds was tested using an in vitro cancer cell tests. The specific test method is as follows: • 1. Cell recovery and culture method: the cryovial was taken out from the liquid nitrogen container firstly, soaked directly in 37°C warm water, and shaked from time to time to let it thaw as soon as possible. Then, the cryovial was transferred to a clean bench, and the lid was open. The cell suspension was taken into a centrifuge tube using a rubber-tipped dropper and more than 10 times the culture medium was added, mixed well, and centrifuged at 50g for 5 minutes. Then, the supernatant was discarded, complete culture medium containing 10% fetal bovine serum was added to resuspend the cells, the cells was counted, the cell density was adjusted, and then inoculated into a culture bottle. The culture bottle was placed in a cell culture incubator at 5% CO2 and 37°C. The complete culture medium was replaced once the next day and the culture was continued. • 2. Cell passaging method: adherent cells in the logarithmic growth phase were placed in a clean bench, the original culture medium was discarded, and washed three times with 1×PBS. An appropriate amount of 0.25% trypsin digestion solution was added to moisten the cells, and then the trypsin solution was aspirated. The cells were placed in a cell culture incubator at 5% CO2 and 37°C for digestion for a suitable time, and observed under a microscope. When 90% of the cells become round, the cells were moved immediately to the clean bench and complete culture medium was added to terminate digestion. Then, the cells were dislodged by pipetting up and down with a rubber-tipped dropper to single cells. The cells were counted, and the cell density was adjusted. The cells were inoculated into a suitable culture bottle or dish, added enough complete culture medium, and placed in a cell culture incubator at 5% CO2 and 37°C for static culture. For suspension cells in the logarithmic phase, the original culture medium was directly centrifuged at 50g for 5 minutes, the supernatant was discarded, and the cells were washed once with PBS and centrifuged. After discarding the supernatant, the complete culture medium was added and the cells were dispersed using a rubber-tipped dropper. The cells are counted, and the cell density was adjusted. The cells were inoculated into appropriate culture bottles or culture dishes, and sufficient complete culture medium was added, and the cells were cultured in a cell culture incubator at 5% CO2 and 37°C. • 3. Cell proliferation assay: cells in good state in logarithmic phase were taken and appropriate amount of the cells was inoculated into 96-well plates according to the cell passage treatment method, with each well containing 180 µL complete medium. After the cells growth was recovered and the number of cells in each well is 5000±500, a drug was added for treatment. After drug treatment during the experimental time, MTT solution with a final concentration of 0.5 mg/mL was added to each well, and placed in a cell culture incubator at 5% CO2 and 37°C to allow a fully reaction of MTT with cells. After 4 hours, the solution in the 96-well plate was discarded, 100 µL of DMSO was added, and shaked to dissolve the formazan precipitated at the bottom of the plate, and the absorbance value of samples was detected at a wavelength of 570 nm using a microplate reader. Calculation method of cell viability rate: Viability rate = A sample group÷A control group × 100% [formula] • 4. Cell photography step: cells in good state in logarithmic phase were taken and an appropriate amount of cells was inoculated into 96-well plates according to the cell passage treatment method, with each well containing 180 µL complete medium. After the cells growth was recovered and the number of cells in each well is 5000 ± 500, a drug was added for treatment. […]

[1] = Table 2, 37°C, 16 hours, read-out: G- bacteria MIC E. coli ATCC 25922
[2] = ATCC43300, Table 1, 37°C, 16 hours, read-out: G+ bacteria MIC S. aureus ATCC 43300
[3] = Table 3, read-out: E. coli ATCC 25922 MIC
[4] = ATCC43300, Table 3, read-out: S. aureus ATCC 43300 MIC

Row | MIC (A. baumannii ATCC 17978) | MIC (E. coli ATCC 25922; [1]) | MIC (E. feacium ATCC 700221; Table 1, 37°C, 16 hours) | MIC (P.aeruginosa ATCC 27853) | MIC (S. aureus ATCC 43300; [2]) | MIC (E. coli ATCC 25922; [3]) | MIC (S. aureus ATCC 43300; [4]) | Compound | inhibition at 40 µM (Hela) | other results
1 |  |  | 1 to 8 µg/mL (≈ 2.15 to 17.2 µM) |  | ≤ 0.1 µg/mL |  |  | Cc1c(-c2ccc(C(=O)NCC(C)(C)C)c(N)c2)c(F)cc2c(=O)c(C(=O)O)cn(C3CC3)c12 [Example 49] |  | 
2 | ≤ 0.1 µg/mL | ≤ 0.1 µg/mL |  | 0.1 to 1 µg/mL (≈ 0.295 to 2.95 µM) |  |  |  | Nc1cc(-c2cc3c(cc2F)c(=O)c(C(=O)O)cn3C2CC2)ccn1 [Example 50] |  | 
3 |  |  |  |  |  | ≥ 1 µg/mL | ≤ 1 µg/mL | Nc1ccc(-c2c(F)cc3c(=O)c(C(=O)NO)cn(C4CC4)c3c2Cl)cc1[N+](=O)[O-] [Example 64] | ≥ 20% | 
4 |  |  |  |  |  | ≥ 1 µg/mL | ≤ 1 µg/mL | COc1cc(-c2cc3c(cc2F)c(=O)c(C(=O)O)cn3C2CC2)ccc1NC(=O)C(C)(C)C [Example 65] | ≥ 50% | 
5 |  |  |  |  |  | ≥ 1 µg/mL | ≤ 1 µg/mL | CCCCCCCNS(=O)(=O)c1ccc(-c2cc3c(cc2F)c(=O)c(C(=O)O)cn3C2CC2)cc1 [Example 101] | ≥ 50% | 
6 |  |  |  |  |  | ≥ 1 µg/mL | ≤ 1 µg/mL | CCCCCCCNS(=O)(=O)c1ccc(-c2cc3c(cc2F)c(=O)c(C(=O)O)cn3C2CC2)cc1C(F)(F)F [Example 132] | ≥ 20% | 
7 |  |  |  |  |  | ≥ 1 µg/mL | ≤ 1 µg/mL | COc1c(-c2ccc(N)c([N+](=O)[O-])c2)c(F)cc2c(=O)c(C(=O)NO)cn(C3CC3)c12 [Example 138] | ≥ 50% | 
8 | ≤ 0.1 µg/mL | ≤ 0.1 µg/mL | > 8 µg/mL | 1 to 8 µg/mL (≈ 2.49 to 19.9 µM) | ≤ 0.1 µg/mL |  |  | COc1c(N2C[C@@H]3CCCN[C@@H]3C2)c(F)cc2c(=O)c(C(=O)O)cn(C3CC3)c12 [Moxifloxacin, reference compound] |  | 

Further lines, the molecule ahead of its results:

Row | Compound | MIC (A. baumannii ATCC 17978) | MIC (E. coli ATCC 25922; [1]) | MIC (E. feacium ATCC 700221; Table 1, 37°C, 16 hours) | MIC (P.aeruginosa ATCC 27853) | MIC (S. aureus ATCC 43300; [2]) | MIC (E. coli ATCC 25922; [3]) | MIC (S. aureus ATCC 43300; [4]) | inhibition at 40 µM (Hela) | other results
9 | NS(=O)(=O)c1ccc(-c2c(F)cc3c(=O)c(C(=O)O)cn(C4CC4)c3c2Cl)cc1[N+](=O)[O-] [Example 4, 8-chloro-1-cyclopropyl-6-fluoro-7-(3-nitro-4-sulfamoyphenyl)-4-oxo-1,4-dihydroquinolin-3-carboxylic acid] | 0.1 to 1 µg/mL (≈ 0.208 to 2.08 µM) | ≤ 0.1 µg/mL | 1 to 8 µg/mL (≈ 2.08 to 16.6 µM) | 0.1 to 1 µg/mL (≈ 0.208 to 2.08 µM) | ≤ 0.1 µg/mL |  |  |  | 
10 | N#Cc1cc(-c2cc3c(cc2F)c(=O)c(C(=O)O)cn3C2CC2)ccc1S(=O)(=O)NC1CCOCC1 [Example 5, 7-(3-cyano-4-(N-(tetrahydro-2H-pyran-4-yl)sulfamoyl)phenyl)-1-cyclopropyl-6-fluoro-4-oxo-1,4-dihydroquinolin-3-carboxylic acid] | ≤ 0.1 µg/mL | ≤ 0.1 µg/mL | 1 to 8 µg/mL (≈ 1.95 to 15.6 µM) | 0.1 to 1 µg/mL (≈ 0.195 to 1.95 µM) | ≤ 0.1 µg/mL |  |  |  | 
11 | O=C(O)c1cn(C2CC2)c2cc(-c3ccc(S(=O)(=O)NCCCl)cc3)c(F)cc2c1=O [Example 10, 7-(4-(N-(2-chloroethyl)sulfamoyl)phenyl)-1-cyclopropyl-6-fluoro-4-oxo-1,4-dihydroquinolin-3-carboxylic acid] |  |  |  |  |  |  |  |  | MIC (E. feacium ATCC 700221; 16 h): > 8 µg/mL; MIC (S. aureus ATCC 43300; ATCC43300, 16 h, read-out: G+ bacteria MIC S. aureus ATCC 43300): ≤ 0.1 µg/mL
12 | CCCCCCCNS(=O)(=O)c1ccc(-c2cc3c(cc2F)c(=O)c(C(=O)O)cn3-c2ccc(F)cc2)cc1 [Example 12, 6-fluoro-1-(4-fluorophenyl)-7-(4-(N-heptylsulfamoyl)phenyl)-4-oxo-1,4-dihydroquinolin-3-carboxylic acid] |  |  |  |  |  | ≥ 1 µg/mL | ≤ 1 µg/mL | ≥ 50% | 
13 | O=C(O)c1cn(C2CC2)c2cc(-c3ccc(S(=O)(=O)NCCO)cc3)c(F)cc2c1=O [Example 13, 1-cyclopropyl-6-fluoro-7-(4-(N-(2-hydroxyethyl)sulfamoyl)phenyl)-4-oxo-1,4-dihydroquinolin-3-carboxylic acid] | 0.1 to 1 µg/mL (≈ 0.224 to 2.24 µM) | ≤ 0.1 µg/mL | 1 to 8 µg/mL (≈ 2.24 to 17.9 µM) | 0.1 to 1 µg/mL (≈ 0.224 to 2.24 µM) | ≤ 0.1 µg/mL |  |  |  | 
14 | CCCNS(=O)(=O)c1ccc(-c2c(F)cc3c(=O)c(C(=O)O)cn(C4CC4)c3c2Cl)cn1 [Example 15, 8-chloro-1-cyclopropyl-6-fluoro-4-oxo-7-(6-(N-propylsulfamoyl)pyridin-3-yl)-1,4-dihydroquinolin-3-carboxylic acid] |  |  | > 8 µg/mL |  | ≤ 0.1 µg/mL |  |  |  | 
15 | CCCCCCCNS(=O)(=O)c1ccc(-c2cc3c(cc2F)c(=O)c(C(=O)O)cn3-c2ccc(F)cn2)cc1 [Example 19, 6-fluoro-1-(5-fluoropyridin-2-yl)-7-(4-(N-heptylsulfamoyl)phenyl)-4-oxo-1,4-dihydroquinolin-3-carboxylic acid] |  |  |  |  |  | ≥ 1 µg/mL | ≤ 1 µg/mL | ≥ 50% | 
16 | COc1c(-c2ccc(NC(=O)C(F)(F)F)c([N+](=O)[O-])c2)c(F)cc2c(=O)c(C(=O)O)cn(C3CC3)c12 [Example 30, 1-cyclopropyl-6-fluoro-8-methoxy-7-(3-nitro-4-(2,2,2-triifluoroacetamido)phenyl)-4-oxo-1,4-dihydroquinolin-3-carboxylic acid] | 0.1 to 1 µg/mL (≈ 0.196 to 1.96 µM) | ≤ 0.1 µg/mL |  | 0.1 to 1 µg/mL (≈ 0.196 to 1.96 µM) |  |  |  |  | 
17 | O=C(O)c1cn(C2CC2)c2c([N+](=O)[O-])c(-c3ccc(NC(=O)C(F)(F)F)c([N+](=O)[O-])c3)c(F)cc2c1=O [Example 32] |  |  | 1 to 8 µg/mL (≈ 1.91 to 15.3 µM) |  | ≤ 0.1 µg/mL |  |  |  | 
18 | O=C(O)c1cn(C2CC2)c2cc(-c3ccc(NC(=O)C(F)(F)F)c([N+](=O)[O-])c3)c(F)cc2c1=O [Example 35] | ≤ 0.1 µg/mL | ≤ 0.1 µg/mL |  | 0.1 to 1 µg/mL (≈ 0.209 to 2.09 µM) |  |  |  |  | 
19 | CC(C)(C)OC(=O)Nc1ccc(-c2cc3c(cc2F)c(=O)c(C(=O)O)cn3C2CC2)cc1[N+](=O)[O-] [Example 40] |  |  |  |  |  | ≥ 1 µg/mL | ≤ 1 µg/mL | ≥ 50% | 
20 | Nc1cc(-c2c(F)cc3c(=O)c(C(=O)O)cn(C4CC4)c3c2F)ccc1C(=O)NCC(F)(F)F [Example 43] | 0.1 to 1 µg/mL (≈ 0.208 to 2.08 µM) | ≤ 0.1 µg/mL |  | 0.1 to 1 µg/mL (≈ 0.208 to 2.08 µM) |  | ≤ 1 µg/mL | ≤ 1 µg/mL | ≥ 20% | 
